The values below come from patent US8598364B2, “Oligomer-protease inhibitor conjugates” (Nektar Therapeutics, priority 2007, dated 2013).

Data set [1] relates to HIV-1RF. The experiment in a line: Anti-HIV-1 efficacy in CEM-SS cells infected with HIV-1RF (MTS staining). Type of data set: cell-based. Conditions: for IC50: read-out: In vitro Activity IC50. Here is the method:
(§1) Compounds were tested at a 1.0 μM high-test concentration in DMSO. CEM-SS cells were passaged in T-75 flasks prior to use in the antiviral assay. On the day preceding the assay, the cells were split 1:2 in order to assure they were in exponential growth phase at the time of infection. Total cell and viability quantification was performed using a hemacytometer and trypan blue exclusion. Cell viability was greater than 95% for the cells to be utilized in the assay. The cells were resuspended at 5×10^4 cells/mL in tissue culture medium and added to the drug-containing microtiter plates in a volume of 50 μL.
The virus used was the lymphocytropic virus strain HIV-1RF. This virus was obtained from the NIH AIDS research and Reference Reagent Program and was grown in CEM-SS cells for the production of stock virus pools. For each assay, a pre-titered aliquot of virus was removed from the freezer and allowed to thaw slowly to room temperature in a biological safety cabinet. The virus was resuspended and diluted into tissue culture medium such that the amount of virus added to each well in a volume of 50 μL was the amount determined to give approximately 90% cell killing in six days post-infection.
(§2) Each plate contains cell control wells (cells only), virus control wells (cells plus virus), compound cytotoxicity wells (cells plus compound only), compound colorimetric control wells (compound only), as well as experimental wells (compound plus cells plus virus). Samples were evaluated with triplicate measurements for antiviral efficacy and duplicate measurements for cytotoxicity. Six concentrations at half-log dilutions were used in order to determine the IC50 values and to measure cellular cytotoxicity, if detectable.
(§3) At assay termination, the assay plates were stained with the soluble tetrazolium-based dye MTS (CellTiter Reagent, Promega) to determine cell viability and quantify compound cytotoxicity. […] At termination of the assay, 20 μL of MTS reagent was added per well. The wells were incubated for four to six hours at 37° C. Adhesive plate sealers were used in place of the lids, the seal plate was inverted several times to mix the soluble formazan product and the plate was read spectrophotometrically at 490/650 nm with a Molecular Devices Vmax plate reader.

The nature of data set [2]: in vitro. As to conditions: human. Here is the method: as §1, §2, §3
The subject of data set [3] is CEM-SS cells. The experiment in a line: in vitro. Here is the method:
as §1, §2, §3

Data set [4] concerns the target T1, retroviral protease (Human immunodeficiency virus type 1 group M subtype B, UniProt P04585).
T1 construct: any small molecule that can reduce the activity of a retroviral protease
Description: Cell-free assay of protease inhibitor conjugates. Type of data set: biochemical. As to conditions: for IC50-fold change / IC90 fold change: relative to atazanavir.

Setting [5] is: Human immunodeficiency virus 1, CEM-SS, Table 2, atazanavir conjugates, read-out: CEM-SS/HIV-1RF EC50.
[6] abbreviates: Human immunodeficiency virus 1, Table 4, CEM-SS/HIV-1RF, read-out: EC50.
The mark [7] stands for this setting: IC50, Table 3, cell-free assay, atazanavir conjugates.
Setting [8] is: Table 1, CEM-SS cells, HIV-1RF, 50% inhibition of virus replication, 1.0 μM high-test concentration.
[9] abbreviates: Table 2, atazanavir conjugates, read-out: CEM-SS/HIV-1RF EC50.
Where [10] appears, read: Table 4, CEM-SS/HIV-1RF, read-out: EC50.
[11] abbreviates: Table 3, cell-free assay, atazanavir conjugates, read-out: IC50.
Setting [12] is: Table 3, cell-free assay, atazanavir conjugates, read-out: IC90.

Where two headings read alike, the source gives them in different places.

In general, IC90 refers to the point of the concentration-response curve where the effect stands at 90%. Usually IC50 stands for the midpoint of a concentration-inhibition curve. Regarding `COCCOCCOCCOCCOCCOCCOCCOC(=O)NC(C(=O)NC(Cc1ccccc1)C(O)CN(Cc1ccc(-c2ccccn2)cc1)NC(=O)C(NC(=O)OCCOCCOCCOCCOCCOCCOCCOC)C(C)(C)C)C(C)(C)C` (stereo not shown) [di-mPEG-7-Atazanavir, di-mPEG7-Atazanavir], the EC50 in data set [1] (setting [5]) and in data set [1] (setting [6]) was 8400 nM throughout. Moreover, the CC50 in data set [2] and in data set [3] (human) was greater than 200000 nM throughout. This molecule came in with an IC90 in data set [4] of 39.9 nM. Further, in data set [4] (setting [7]), it took 10.9 nM to reach half-maximal inhibition (IC50). The molecule further had an IC50-fold change in data set [4] (Table 3, cell-free assay) of 1.6. In data set [4] (Table 3, cell-free assay), this molecule displayed an IC90 fold change of 1.3.

Consider `CCC[C@@]1(CCc2ccccc2)CC(O)=C([C@H](CC)c2cccc(NS(=O)(=O)c3ccc(C(F)(F)F)cn3)c2)C(=O)O1` [Tipranavir, tipranavir, reference compound], for which the EC50 in data set [1] (Human immunodeficiency virus 1, CEM-SS, Table 5, tipranavir conjugates in cell-based assay, read-out: CEM-SS/HIV-1RF EC50) worked out at 120 nM. The CC50 in data set [2] turned out to be 30600 nM. For the same molecule, half-maximal inhibition in data set [4] (IC50, Table 6, tipranavir conjugates in cell-free assay) (IC50) required 7.2 nM.

With `COC(=O)N[C@H](C(=O)N[C@@H](Cc1ccccc1)[C@@H](O)CN(Cc1ccc(-c2ccccn2)cc1)NC(=O)[C@@H](NC(=O)OC)C(C)(C)C)C(C)(C)C` [Atazanavir, atazanavir, reference compound], the EC50 in data set [1] (setting [5]) and in data set [1] (setting [6]) was 12 nM throughout. In data set [2], the CC50 came out at 54900 nM. This molecule also showed an IC90 in data set [4] of 31.8 nM. The midpoint of inhibition in data set [4] (setting [7]), the IC50, lay at 6.92 nM. In addition, the IC50-fold change in data set [4] (Table 3, cell-free assay) turned out to be 1.0. In data set [4] (Table 3, cell-free assay), this molecule showed an IC90 fold change of 1.0.

Take `COCCOCCOCCOC(=O)NC(C(=O)NC(Cc1ccccc1)C(O)CN(Cc1ccc(-c2ccccn2)cc1)NC(=O)C(NC(=O)OCCOCCOCCOC)C(C)(C)C)C(C)(C)C` (stereo not shown) [di-mPEG-3-Atazanavir, di-mPEG3-Atazanavir]: the EC50 in data set [1] (setting [5]) came out at 38 nM. The EC50 in data set [1] (setting [6]) amounted to 38 nM. In data set [2], the CC50 was determined as 95700 nM. The molecule further registered an IC90 in data set [4] of 53.7 nM. Moreover, 12.7 nM corresponded to half-maximal inhibition in data set [4] (setting [7]) (IC50). In data set [4] (Table 3, cell-free assay), this molecule gave an IC50-fold change of 1.8 and an IC90 fold change of 1.7.

For “15-di-m-PEG-7-NCO-Saquinavir [di-15-m-PEG-7-NCO-Saquinavir]”, in data set [1] (setting [8]), the IC50 turned out to be 560 nM. In data set [3], this molecule had a CC50 greater than 1000 nM.

In the case of `Cc1cn([C@H]2C[C@H](N=[N+]=[N-])[C@@H](CO)O2)c(=O)[nH]c1=O` [AZT, reference compound], the EC50 was 1 nM in data set [1] (setting [9]); 1 nM in data set [1] (setting [10]); 2 nM in data set [1] (Table 5, tipranavir conjugates in cell-based assay, read-out: CEM-SS/HIV-1RF EC50); 5 nM in data set [1] (Table 7, darunavir conjugates in cell-based assay, read-out: CEM-SS/HIV-1RF EC50). Besides, the CC50 in data set [3] is greater than 1000 nM.

In the case of 15-m-PEG-7-NHCO-Saquinavir, the IC50 in data set [1] (setting [8]) amounted to 50 nM. In data set [3], this molecule had a CC50 greater than 1000 nM.

For the molecule `CC(C)(C)NC(=O)[C@@H]1C[C@@H]2CCCC[C@@H]2CN1C[C@@H](O)[C@H](Cc1ccccc1)NC(=O)[C@H](CC(N)=O)NC(=O)c1ccc2ccccc2n1` [Saquinavir, saquinavir, reference compound], the IC50 in data set [1] (Human immunodeficiency virus 1, CEM-SS) came out at 2 nM. In data set [2], this molecule displayed a CC50 greater than 100 nM.

With “di-mPEG5-Atazanavir [di-mPEG-5-Atazanavir]”, the EC50 in data set [1] (setting [9]) and in data set [1] (setting [10]) was 1100 nM each time. The molecule also displayed a CC50 in data set [3] greater than 200000 nM. Further, in data set [4] (setting [11]), the IC50 was found to be 17.3 nM. The IC90 in data set [4] (setting [12]) was determined as 47.6 nM. In addition, the IC50-fold change in data set [4] (Table 3, cell-free assay) amounted to 2.5. The molecule further yielded an IC90 fold change in data set [4] (Table 3, cell-free assay) of 1.5.

For the molecule 26-m-PEG-7-O-Saquinavir, the “In vitro Activity IC50” value in data set [1] (setting [8]) is “no activity”. The same molecule yielded a CC50 in data set [3] greater than 1000 nM.

26-m-PEG-3-O-Saquinavir: the “In vitro Activity IC50” value in data set [1] (setting [8]) is “no activity”. Also, in data set [3], the CC50 is greater than 1000 nM.

As to “di-mPEG6-Atazanavir [di-mPEG-6-Atazanavir]”, the EC50 in data set [1] (setting [9]) came to 2500 nM. Further, the EC50 in data set [1] (setting [10]) amounted to 2500 nM. Moreover, in data set [3], the CC50 was 159000 nM. Further, the IC50 in data set [4] (setting [11]) was 15.6 nM. Besides, the IC90 in data set [4] (setting [12]) is 67.8 nM. In data set [4] (Table 3, cell-free assay), this molecule registered an IC50-fold change of 2.3 and an IC90 fold change of 2.1.

On to `CC(C)CN(C[C@@H](O)[C@H](Cc1ccccc1)NC(=O)O[C@H]1CO[C@H]2OCC[C@H]21)S(=O)(=O)c1ccc(N)cc1` [Darunavir, darunavir, reference compound], for which the EC50 in data set [1] (Human immunodeficiency virus 1, CEM-SS, read-out: CEM-SS/HIV-1RF EC50) was less than 0.7 nM.
